Experimental data published in PMC8379256, “A xanthene derivative, DS20060511, attenuates glucose intolerance by inducing skeletal muscle-specific GLUT4 translocation in mice” (Communications Biology, 2021).
Where “and” joins values, the source holds several entries; their conditions need not be identical. Identical values can stand only once.

Assays:
Assay type in all cases: in vivo, mouse
C57BL/6 mice = assay: Indirect calorimetry and exercise endurance under stepwise treadmill running; settings: 30 mg/kg; for Respiratory quotient / CO2 Production (VCO2) / O2 Consumption (VO2): DS20060511 30 mg/kg, individual mice 1-7, Fig. 5a
Method: The mice were acclimatized to the treadmill by allowing them to run at 10 m min^−1 for 10 min on the day before the test. On the day of the test, the mice received oral administration of 30 mg kg^−1 of DS20060511 or vehicle 15 min before they were made to run. The treadmill was started at a velocity of 10 m min^−1, with the speed increased stepwise by 2 m min^−1 every 3 min, to assess the exercise endurance capacity as described previously. Measurements of the oxygen consumption (VO2) and exhaled carbon dioxide (VCO2) under treadmill running were conducted with the ARCO-2000 magnetic-type mass spectrometric calorimeter (ARCO System, Kashiwa, Japan) connected to the treadmill chamber (MB-2000, ARCO System). The RER was calculated as the VCO2/VO2 ratio and the substrate utilization rates were calculated using Frayn’s formula[51]: rate of glucose oxidation = 4.585VCO2 − 3.226VO2; rate of fat oxidation = 1.695VO2 − 1.701VCO2. The exercise endurance capacity under treadmill running was determined by measuring the time from the start to the time until the mice ceased to run because of exhaustion, which was defined as remaining on the shocker plate for more than 10 sec. Immediately after the exercise, the blood glucose and lactate levels were measured using Glutest Every and Lactate Pro2 (ARKRAY, Kyoto, Japan), respectively, in blood samples collected from the tail vein.

WT and eNOSKO mice = assay: Oral GTT in wild-type and eNOS-knockout mice; settings: Glucose tolerance test, 30 mg/kg, individual animals
STZ-treated C57BL/6 mice = assay: Insulin tolerance test (ITT) in STZ-treated C57BL/6 mice; settings: for Blood glucose: ITT
Method: Arrowheads indicate the characteristic ruffled structure of the polymerized actin and actin-associated surface GLUT4. d GLUT4 translocation activity of 30 μM DS20060511 or 100 nM insulin in the presence of the actin polymerization inhibitor, Latrunculin B, at the indicated concentrations. Values shown are means ± SEM, n = 3. **P < 0.01 vs. 0 nM Latrunculin B by one-way ANOVA followed by Dunnett’s test. e Concentration-dependent insulin-stimulated GLUT4 translocation in L6-GLUT4myc myotubes with or without 30 μM DS20060511 (n = 3). f Concentration-dependent DS20060511-stimulated 2-DG uptake with 100 nM insulin in isolated muscles from C57BL/6 mice (n = 3). Values shown are means ± SEM. ***P < 0.001 by one-way ANOVA followed by Tukey’s test. g Blood glucose levels during ITT in STZ-treated C57BL/6 mice (n = 6–7). Vehicle or indicated dose of DS20060511 was given orally at the same time as 0.1 U kg^−1 insulin injection intraperitoneally. Values shown are means ± SEM. *P < 0.05 vs. vehicle by one-way ANOVA followed by Dunnett’s test. c Scale bar in all panels, 5 μm. Uncropped blots for a and b can be found in Supplementary Fig. 6.
C57BL/6 mice deprived of access to food overnight received an intraperitoneal injection of STZ (125 mg kg^−1) and a repeat injection a week later. Thereafter, their blood glucose levels were monitored and insufficient mice (blood glucose levels of under 400 mg dL^−1 or blood glucose levels after overnight food deprivation of under 200 mg dL^−1) were excluded from the experiment. Blood glucose levels were measured using Glutest Every (Sanwa Kagaku Kenkyusho, Nagoya, Japan) in blood samples collected from the tail vein.
Mice received the indicated oral dose of DS20060511 or vehicle at the same time as the intraperitoneal injection of insulin (Humulin) at the indicated dose. Blood glucose levels were measured using Glutest Every in blood samples collected from the tail vein at the indicated timepoints.

COc1ccc2c(C)c(C(=O)O)ccc2c1C1C2=C(CC(C)(C)CC2=O)OC2=C1C(=O)CC(C)(C)C2 [DS20060511]
Respiratory quotient (C57BL/6 mice; 3 min): 0.77 (2×) and 0.79 (2×) and 0.75 and 0.82 and 0.80
CO2 Production (VCO2) (C57BL/6 mice; 4 min): 90.3 mL/min/kg and 73.1 mL/min/kg and 78.3 mL/min/kg and 89.7 mL/min/kg and 70.1 mL/min/kg and 72.9 mL/min/kg and 72.1 mL/min/kg
O2 Consumption (VO2) (C57BL/6 mice; 4 min): 103.7 ml/min/kg and 110.0 ml/min/kg and 106.3 ml/min/kg and 93.1 ml/min/kg (2×) and 117.2 ml/min/kg and 90.4 ml/min/kg
Respiratory quotient (C57BL/6 mice; 4 min): 0.77 (2×) and 0.81 (2×) and 0.75 and 0.66 and 0.78
CO2 Production (VCO2) (C57BL/6 mice; 5 min): 91.5 mL/min/kg and 72.5 mL/min/kg and 78.6 mL/min/kg and 85.8 mL/min/kg and 66.5 mL/min/kg and 73.8 mL/min/kg and 71.7 mL/min/kg
O2 Consumption (VO2) (C57BL/6 mice; 5 min): 103.7 mL/min/kg and 103.8 mL/min/kg and 83.5 mL/min/kg and 95.6 mL/min/kg and 90.5 mL/min/kg and 116.5 mL/min/kg and 90.3 mL/min/kg
Respiratory quotient (C57BL/6 mice; 5 min): 0.78 and 0.80 (2×) and 0.76 and 0.83 and 0.77 and 0.79
CO2 Production (VCO2) (C57BL/6 mice; 6 min): 87.9 mL/min/kg and 70.6 mL/min/kg and 76.9 mL/min/kg and 85.9 mL/min/kg and 73.0 mL/min/kg and 71.8 mL/min/kg and 71.2 mL/min/kg
O2 Consumption (VO2) (C57BL/6 mice; 6 min): 100.7 mL/min/kg and 102.8 mL/min/kg and 90.9 mL/min/kg and 93.7 mL/min/kg and 92.0 mL/min/kg and 112.2 mL/min/kg and 87.4 mL/min/kg
Respiratory quotient (C57BL/6 mice; 6 min): 0.78 and 0.81 and 0.76 and 0.84 and 0.80 and 0.77 (2×)
CO2 Production (VCO2) (C57BL/6 mice; 7 min): 93.5 mL/min/kg and 69.9 mL/min/kg and 76.8 mL/min/kg and 86.5 mL/min/kg and 72.9 mL/min/kg and 71.9 mL/min/kg and 70.2 mL/min/kg
O2 Consumption (VO2) (C57BL/6 mice; 7 min): 101.1 mL/min/kg and 105.0 mL/min/kg and 90.7 mL/min/kg and 93.7 mL/min/kg and 90.0 mL/min/kg and 120.2 mL/min/kg and 86.5 mL/min/kg
Respiratory quotient (C57BL/6 mice; 7 min): 0.78 (2×) and 0.81 and 0.76 and 0.82 and 0.80 and 0.77
CO2 Production (VCO2) (C57BL/6 mice; 8 min): 88.9 mL/min/kg and 75.0 mL/min/kg and 78.4 mL/min/kg and 85.8 mL/min/kg and 72.7 mL/min/kg and 72.1 mL/min/kg and 69.7 mL/min/kg
O2 Consumption (VO2) (C57BL/6 mice; 8 min): 103.5 mL/min/kg and 107.7 mL/min/kg and 91.4 mL/min/kg and 93.1 mL/min/kg and 101.3 mL/min/kg and 113.1 mL/min/kg and 92.7 mL/min/kg
Respiratory quotient (C57BL/6 mice; 8 min): 0.79 and 0.81 and 0.76 and 0.80 (2×) and 0.77 and 0.69
CO2 Production (VCO2) (C57BL/6 mice; 9 min): 95.5 mL/min/kg and 73.8 mL/min/kg and 77.9 mL/min/kg and 84.5 mL/min/kg and 74.4 mL/min/kg and 71.2 mL/min/kg and 78.8 mL/min/kg
O2 Consumption (VO2) (C57BL/6 mice; 9 min): 100.3 mL/min/kg and 103.6 mL/min/kg and 93.8 mL/min/kg and 94.2 mL/min/kg and 95.0 mL/min/kg and 118.5 mL/min/kg and 89.8 mL/min/kg
Respiratory quotient (C57BL/6 mice; 9 min): 0.81 and 0.82 (2×) and 0.78 and 0.79 and 0.76 and 0.83
CO2 Production (VCO2) (C57BL/6 mice; 10 min): 92.6 ml/min/kg and 70.7 ml/min/kg and 80.1 ml/min/kg and 84.2 ml/min/kg (2×) and 72.0 ml/min/kg and 74.9 ml/min/kg
O2 Consumption (VO2) (C57BL/6 mice; 10 min): 104.6 mL/min/kg and 102.1 mL/min/kg and 90.2 mL/min/kg and 95.3 mL/min/kg and 98.2 mL/min/kg and 113.5 mL/min/kg and 87.0 mL/min/kg
Respiratory quotient (C57BL/6 mice; 10 min): 0.82 (2×) and 0.81 and 0.77 and 0.80 and 0.79 and 0.86
CO2 Production (VCO2) (C57BL/6 mice; 11 min): 96.0 ml/min/kg and 73.8 ml/min/kg and 80.9 ml/min/kg and 84.3 ml/min/kg and 71.1 ml/min/kg (2×) and 86.5 ml/min/kg
O2 Consumption (VO2) (C57BL/6 mice; 11 min): 106.8 mL/min/kg and 102.9 mL/min/kg and 84.9 mL/min/kg and 92.0 mL/min/kg and 101.1 mL/min/kg and 115.1 mL/min/kg and 89.8 mL/min/kg
Respiratory quotient (C57BL/6 mice; 11 min): 0.83 and 0.82 (2×) and 0.76 and 0.84 and 0.77 and 0.85
CO2 Production (VCO2) (C57BL/6 mice; 12 min): 97.3 mL/min/kg and 74.3 mL/min/kg and 80.0 mL/min/kg and 93.2 mL/min/kg and 68.6 mL/min/kg and 70.0 mL/min/kg and 89.3 mL/min/kg
O2 Consumption (VO2) (C57BL/6 mice; 12 min): 103.8 mL/min/kg and 112.5 mL/min/kg and 85.8 mL/min/kg and 91.1 mL/min/kg and 105.1 mL/min/kg and 120.4 mL/min/kg and 90.9 mL/min/kg
Respiratory quotient (C57BL/6 mice; 12 min): 0.81 and 0.82 and 0.77 (2×) and 0.83 and 0.80 and 0.85
CO2 Production (VCO2) (C57BL/6 mice; 13 min): 101.9 mL/min/kg and 82.3 mL/min/kg and 78.0 mL/min/kg and 86.9 mL/min/kg and 68.9 mL/min/kg and 69.6 mL/min/kg and 93.3 mL/min/kg
O2 Consumption (VO2) (C57BL/6 mice; 13 min): 102.8 mL/min/kg and 102.5 mL/min/kg and 86.7 mL/min/kg and 90.5 mL/min/kg and 109.1 mL/min/kg and 127.7 mL/min/kg and 94.9 mL/min/kg
Respiratory quotient (C57BL/6 mice; 13 min): 0.80 and 0.87 and 0.76 and 0.85 and 0.79 and 0.77 and 0.86
CO2 Production (VCO2) (C57BL/6 mice; 14 min): 100.6 mL/min/kg and 80.5 mL/min/kg and 79.5 mL/min/kg and 84.1 mL/min/kg and 69.5 mL/min/kg and 69.8 mL/min/kg and 95.1 mL/min/kg
O2 Consumption (VO2) (C57BL/6 mice; 14 min): 102.1 mL/min/kg and 101.4 mL/min/kg and 88.4 mL/min/kg and 91.3 mL/min/kg and 109.8 mL/min/kg and 125.1 mL/min/kg and 95.0 mL/min/kg
Respiratory quotient (C57BL/6 mice; 14 min): 0.80 and 0.85 and 0.78 and 0.83 and 0.79 and 0.76 and 0.87
CO2 Production (VCO2) (C57BL/6 mice; 15 min): 92.4 mL/min/kg and 82.1 mL/min/kg and 81.9 mL/min/kg and 83.7 mL/min/kg and 69.2 mL/min/kg and 69.5 mL/min/kg and 105.4 mL/min/kg
O2 Consumption (VO2) (C57BL/6 mice; 15 min): 105.0 mL/min/kg and 100.1 mL/min/kg and 87.5 mL/min/kg and 93.8 mL/min/kg and 120.2 mL/min/kg and 115.1 mL/min/kg and 96.2 mL/min/kg
Respiratory quotient (C57BL/6 mice; 15 min): 0.80 and 0.85 and 0.78 and 0.84 and 0.79 and 0.74 and 0.88
CO2 Production (VCO2) (C57BL/6 mice; 16 min): 98.8 mL/min/kg and 82.5 mL/min/kg
O2 Consumption (VO2) (C57BL/6 mice; 16 min): 103.6 mL/min/kg and 108.6 mL/min/kg
Respiratory quotient (C57BL/6 mice; 16 min): 0.79 and 0.85
Blood glucose (C57BL/6 mice; exercise tolerance test, individual mice): 124 mg/dL and 146 mg/dL and 95 mg/dL and 96 mg/dL and 149 mg/dL and 133 mg/dL and 119 mg/dL
Blood glucose (WT and eNOSKO mice; 0 min): 77 mg/dL
Blood glucose (WT and eNOSKO mice; -15 min): 65 mg/dL
Blood glucose (STZ-treated C57BL/6 mice; 10 mg/kg po with 0.1 U kg−1 insulin ip, 0 min, 10 mg/kg): 516 mg/dL and 430 mg/dL and 520 mg/dL and 493 mg/dL and 480 mg/dL and 526 mg/dL
Blood glucose (STZ-treated C57BL/6 mice; 10 mg/kg with insulin, 20 min, 10 mg/kg): 427 mg/dL and 401 mg/dL and 313 mg/dL and 397 mg/dL and 311 mg/dL and 432 mg/dL
Blood glucose (STZ-treated C57BL/6 mice; 30 mg/kg po with 0.1 U kg−1 insulin ip, 0 min, 30 mg/kg): 433 mg/dL and 472 mg/dL and 458 mg/dL and 427 mg/dL and 461 mg/dL and 483 mg/dL and 532 mg/dL
blood glucose levels, combined with insulin vs insulin alone (in words) (STZ-treated C57BL/6 mice; STZ-treated mice, Fig. 4g): reduced to a greater degree
